The values below come from PMC5377825, “Catalytic Determinants of Alkene Production by the Cytochrome P450 Peroxygenase OleTJE” (The Journal of Biological Chemistry, 2017).

The structures appear in SMILES notation. Residue numbers refer to the chain shown, from its start. Read-outs that look alike come from different tables or passages of the source.

Assay in all cases: UV-visible heme spectral titration
Common to all, as to format: binding

In experiment [1] the target is T1, OleTJE (CYP152L1) (Jeotgalicoccus sp. ATCC 8456, UniProt E9NSU2).
T1 construct: gene JEM45_03820; full length, codon-optimized gene in modified pET15b, N-terminal polyhistidine tag with TEV site; tag kept for spectroscopy, cleaved for crystallography; expressed in E. coli C41 (DE3)
T1 sequence (E9NSU2 1-422): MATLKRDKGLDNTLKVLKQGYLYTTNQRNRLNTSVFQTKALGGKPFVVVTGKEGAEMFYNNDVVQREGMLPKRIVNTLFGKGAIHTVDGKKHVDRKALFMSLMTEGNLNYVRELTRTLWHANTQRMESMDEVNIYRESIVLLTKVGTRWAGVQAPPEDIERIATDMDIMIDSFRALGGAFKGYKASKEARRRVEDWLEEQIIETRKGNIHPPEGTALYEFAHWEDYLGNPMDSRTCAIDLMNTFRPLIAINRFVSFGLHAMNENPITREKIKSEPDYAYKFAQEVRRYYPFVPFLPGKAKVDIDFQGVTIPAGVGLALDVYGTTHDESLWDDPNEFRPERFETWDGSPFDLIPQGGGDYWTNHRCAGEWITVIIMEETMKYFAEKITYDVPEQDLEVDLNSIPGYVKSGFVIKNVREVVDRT
From the text: (§1) UV-visible heme spectral titration on OleTJE (CYP152L1)

Experiment [2] has as its target T2, OleTJE (CYP152L1) (Jeotgalicoccus sp. ATCC 8456, UniProt E9NSU2, F79A).
T2 construct: gene JEM45_03820; full length, codon-optimized gene in modified pET15b, N-terminal polyhistidine tag with TEV site; tag kept for spectroscopy, cleaved for crystallography; expressed in E. coli C41 (DE3)
T2 sequence (E9NSU2 1-422 F79A): T1 sequence (E9NSU2 1-422) with F79A
Description: as §1

Experiment [3] deals with T3, OleTJE (CYP152L1) (Jeotgalicoccus sp. ATCC 8456, UniProt E9NSU2, R245E).
T3 construct: gene JEM45_03820; full length, codon-optimized gene in modified pET15b, N-terminal polyhistidine tag with TEV site; tag kept for spectroscopy, cleaved for crystallography; expressed in E. coli C41 (DE3)
T3 sequence (E9NSU2 1-422 R245E): T1 sequence (E9NSU2 1-422) with R245E
To be noted: read-out: Fatty acid Kd (HS) / C10:0.
Description: as §1

Experiment [4] concerns the target T4, OleTJE (CYP152L1) (Jeotgalicoccus sp. ATCC 8456, UniProt E9NSU2, F79W).
T4 construct: gene JEM45_03820; full length, codon-optimized gene in modified pET15b, N-terminal polyhistidine tag with TEV site; tag kept for spectroscopy, cleaved for crystallography; expressed in E. coli C41 (DE3)
T4 sequence (E9NSU2 1-422 F79W): T1 sequence (E9NSU2 1-422) with F79W
Description: as §1

Experiment [5] deals with T5, OleTJE (CYP152L1) (Jeotgalicoccus sp. ATCC 8456, UniProt E9NSU2, F79Y).
T5 construct: gene JEM45_03820; full length, codon-optimized gene in modified pET15b, N-terminal polyhistidine tag with TEV site; tag kept for spectroscopy, cleaved for crystallography; expressed in E. coli C41 (DE3)
T5 sequence (E9NSU2 1-422 F79Y): T1 sequence (E9NSU2 1-422) with F79Y
Description: as §1

The target in experiment [6] is T6, OleTJE (CYP152L1) (Jeotgalicoccus sp. ATCC 8456, UniProt E9NSU2, H85Q).
T6 construct: gene JEM45_03820; full length, codon-optimized gene in modified pET15b, N-terminal polyhistidine tag with TEV site; tag kept for spectroscopy, cleaved for crystallography; expressed in E. coli C41 (DE3)
T6 sequence (E9NSU2 1-422 H85Q): T1 sequence (E9NSU2 1-422) with H85Q
Description: as §1

The mark [7] stands for this setting: read-out: Fatty acid Kd (HS) / C10:0.
[8] abbreviates: read-out: Fatty acid Kd (HS) / C12:0.
Setting [9] is: read-out: Fatty acid Kd (HS) / C14:0.
Where [10] appears, read: read-out: Fatty acid Kd (HS) / C16:0.
Setting [11] is: read-out: Fatty acid Kd (HS) / C18:0.
Where [12] appears, read: read-out: Fatty acid Kd (HS) / C20:0.

For the compound `CCCCCCCCCC(=O)O` [C10:0, decanoic acid], the Kd at OleTJE (CYP152L1) [1] (setting [7]) stood at 47.1 ± 2.1 µM; at OleTJE (CYP152L1) [2] (setting [7]) it was 465 ± 11 µM; on OleTJE (CYP152L1) [3] it was 1260 ± 160 µM.
With `CCCCCCCCCCCC(=O)O` [C12:0, dodecanoic acid], the Kd on OleTJE (CYP152L1) [1] (setting [8]) came out at 11.7 ± 0.43 µM; on OleTJE (CYP152L1) [2] (setting [8]) it was 55 ± 4.8 µM; on OleTJE (CYP152L1) [4] (setting [8]), 106 ± 9 µM; at OleTJE (CYP152L1) [5] (setting [8]), 196 ± 5 µM; at OleTJE (CYP152L1) [6] (setting [8]) it was 37.3 ± 2.5 µM.
With `CCCCCCCCCCCCCC(=O)O` [C14:0, tetradecanoic acid], the Kd at OleTJE (CYP152L1) [1] (setting [9]) worked out at 1.45 ± 0.05 µM; at OleTJE (CYP152L1) [2] (setting [9]), 39.1 ± 2.5 µM; on OleTJE (CYP152L1) [4] (setting [9]) it was 24.1 ± 0.9 µM; on OleTJE (CYP152L1) [5] (setting [9]), 30.7 ± 1 µM; at OleTJE (CYP152L1) [6] (setting [9]), 10.5 ± 0.1 µM.
For `CCCCCCCCCCCCCCCC(=O)O` [C16:0, hexadecanoic acid], the Kd stood at 1.73 ± 0.08 µM at OleTJE (CYP152L1) [1] (setting [10]), 22.6 ± 1.9 µM at OleTJE (CYP152L1) [2] (setting [10]), 12.7 ± 0.7 µM on OleTJE (CYP152L1) [4] (setting [10]) and 5.36 ± 0.18 µM at OleTJE (CYP152L1) [6] (setting [10]).
`CCCCCCCCCCCCCCCCCC(=O)O` [C18:0, octadecanoic acid]: the Kd at OleTJE (CYP152L1) [1] (setting [11]) was 4.09 ± 0.16 µM; on OleTJE (CYP152L1) [2] (setting [11]) it was 8.7 ± 0.5 µM; at OleTJE (CYP152L1) [4] (setting [11]), 4.52 ± 0.2 µM; on OleTJE (CYP152L1) [6] (setting [11]), 5.92 ± 0.08 µM.
Regarding `CCCCCCCCCCCCCCCCCCCC(=O)O` [C20:0, eicosanoic acid], the Kd worked out at 4.43 ± 0.19 µM at OleTJE (CYP152L1) [1] (setting [12]); 3.4 ± 0.3 µM on OleTJE (CYP152L1) [2] (setting [12]); 4.41 ± 0.27 µM at OleTJE (CYP152L1) [4] (setting [12]); 4.25 ± 0.21 µM on OleTJE (CYP152L1) [5] (setting [12]); 5.27 ± 0.05 µM at OleTJE (CYP152L1) [6] (setting [12]).
